# In patent US20080161422A1, “Methods and Compositions for the Treatment of Lipid-Associated Disorders” (priority 2005, published 2008):
# “Also recorded” adds a separate entry of the source.
# Columns and labels:
# niacin receptor [1] = biological target: T1, niacin receptor (Homo sapiens, UniProt Q8TDS4); assay: Binding to the niacin receptor
# mouse niacin receptor = biological target: T2, mouse niacin receptor (Mus musculus, UniProt Q9EP66); assay: MAP kinase ELISA (phosphoERK1/2) in CHO cells expressing the mouse niacin receptor; assay type: cell-based; details: compared to niacin
# T2 construct: expressed in transfected cells; host or cells: CHO cells
# T2 sequence (Q9EP66 whole entry): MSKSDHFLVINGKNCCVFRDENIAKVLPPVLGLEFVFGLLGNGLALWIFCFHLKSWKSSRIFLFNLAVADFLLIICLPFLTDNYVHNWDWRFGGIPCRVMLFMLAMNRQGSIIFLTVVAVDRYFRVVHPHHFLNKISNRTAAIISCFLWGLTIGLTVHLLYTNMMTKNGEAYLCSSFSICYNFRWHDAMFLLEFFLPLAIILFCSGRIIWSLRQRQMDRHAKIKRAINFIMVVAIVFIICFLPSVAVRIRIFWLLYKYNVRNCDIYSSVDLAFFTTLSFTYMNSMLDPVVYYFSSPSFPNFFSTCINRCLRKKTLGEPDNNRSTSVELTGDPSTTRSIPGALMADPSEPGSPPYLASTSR
# Procedure: A kit from Biosource (phosphoERK1/2 pT185pY187 ELISA, Catalog #KHO-0091) was used according to the following protocol.
# The cells were serum-starved overnight prior to stimulating the cells with compound.
# A. Compounds were dissolved in DMSO. […] PMA (100 ng/ml) was used as a positive control. B. Cell dishes were taken out of the incubator and placed on a rocker set to gentle rocking (set speed at 4). Compound was carefully added and cells were returned to the incubator to incubate for 5 min. At 4.5 min, the medium was aspirated from dishes in the order that the compound was added. Then 2 ml cold PBS was added and excess medium was removed by gentle swirling. The PBS was aspirated and 1 ml of PBS was added (1 ml for confluent 6 cm dish).
# A. Cells were scraped from dish with a rubber policeman and transferred to a microfuge tube, then centrifuged at 3000 rpm at 4° C. for 5 minutes. B. The PBS was aspirated and cell pellet lysed in Cell Extraction Buffer (0.1% SDS) (250-300 μl for confluent 6 cm dish) for 30 min. on ice with vortexing at 10 min intervals. C. The mixture was then centrifuged at max speed (16,000×G) for 15 min. at 4° C. D. Clarified lysates were transferred to new microfuge tubes and protein concentration measure. […]
# A. All reagents were at room temperature and mixed before use. […] The number of 8 well strips needed for assay was determined and bag was sealed and returned to 4° C. […]
# niacin receptor [2] = biological target: T1, niacin receptor; assay: MAP kinase ELISA (phosphoERK1/2) in CHO cells expressing the human niacin receptor; details: compared to niacin
# [3] = test system: women suffering from painful menstrual cramps; details: 80 women; 100 mg niacin twice daily, then every 2 to 3 hours during heavy cramps; cited from earlier work
# T1 sequence (Q8TDS4 whole entry): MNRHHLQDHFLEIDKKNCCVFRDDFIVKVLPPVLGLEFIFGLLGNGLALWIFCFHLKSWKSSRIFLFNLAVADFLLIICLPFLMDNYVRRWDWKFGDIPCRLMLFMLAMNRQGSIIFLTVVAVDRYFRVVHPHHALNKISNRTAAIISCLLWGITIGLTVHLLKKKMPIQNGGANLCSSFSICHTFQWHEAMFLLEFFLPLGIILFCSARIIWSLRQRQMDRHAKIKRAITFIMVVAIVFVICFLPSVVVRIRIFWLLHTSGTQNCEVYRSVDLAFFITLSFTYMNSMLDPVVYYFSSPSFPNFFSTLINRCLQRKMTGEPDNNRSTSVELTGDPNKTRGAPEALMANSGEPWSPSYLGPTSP
SMILES,binding to the niacin receptor (niacin receptor [1]),MAP kinase activation (mouse niacin receptor),MAP kinase activation (niacin receptor [2]),subjects experiencing significant relief [3]
c1cncc(-c2nn[nH]n2)c1 [Compound 12],binds to the niacin receptor,closely matches the profile of niacin; also recorded: behaves like niacin in a MAP kinase assay,closely matches the profile of niacin; also recorded: behaves like niacin in a MAP kinase assay,
"O=C(O)c1cccnc1 [niacin, nicotinic acid]",,,,About 90%
